Measurements from PMC9385719, “Cryo-EM structures of the channelrhodopsin ChRmine in lipid nanodiscs” (Nature Communications, 2022).

Target: T1, ChRmine (Rhodomonas lens, UniProt Z9FJ57BNO3)
T1 construct: residues 1-309 of R. lens cation channelrhodopsin 1; C-terminal PreScission site-linker-sfGFP-7xHis, cleaved; expressed in Sf9; no N-terminal tag, Met1 removed, Ala2 acetylated; residues 2-285 modeled; homotrimer in MSP1E3D1 nanodiscs
T1 sequence (Z9FJ57BNO3 2-309): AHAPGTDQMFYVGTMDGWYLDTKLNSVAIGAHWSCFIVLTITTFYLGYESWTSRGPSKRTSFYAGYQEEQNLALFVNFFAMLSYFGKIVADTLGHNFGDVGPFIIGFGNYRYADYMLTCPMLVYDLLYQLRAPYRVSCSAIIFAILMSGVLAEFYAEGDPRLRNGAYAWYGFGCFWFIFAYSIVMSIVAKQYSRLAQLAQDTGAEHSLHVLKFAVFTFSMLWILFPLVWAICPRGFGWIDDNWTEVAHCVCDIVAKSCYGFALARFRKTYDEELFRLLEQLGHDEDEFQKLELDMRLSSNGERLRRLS
Assay: cryo-EM structure, […] Å, lipid nanodisc
Type: binding
Conditions: covalent; Schiff base to K257; MSP1E3D1 nanodisc with DOPE/POPS/POPC, pH 7.5; 5 µM all-trans retinal added to expression culture; small and large nanodisc forms

In the case of `CC1=C(/C=C/C(C)=C/C=C/C(C)=C/C=O)C(C)(C)CCC1` [all-trans retinal], the “cryo-EM structure, 2.7 Å, lipid nanodisc” value is reported as “(K257) on TM7 is covalently linked to a molecule of all-trans retinal through a Schiff base”.
